Test results published in patent publication US11661439B2, “Peptide hydrogels and use thereof” (The United States of America, as represented by the …, priority 2017, dated 2023).
Non-standard residues stand in square brackets, D forms with d. Residues, ends and D or L forms follow the SMILES beside them.

Columns and labels:
RFP-HDFs = assay: Hydrogel-based in vivo cell delivery with RFP fluorescence imaging; set-up: species or system athymic nude mice
Excerpt: In vivo studies. Six- to eight-week-old non-tumor bearing female athymic nude mice were used for this experiment (n=3). Animal care was in accordance with the procedures outlined in the Guide for Care and Use of Laboratory Animals (National Research Council, 1996; National Academy Press, Washington, D.C.) and animal protocols were approved by the Frederick National Laboratory for Cancer Research (FNLCR) Institutional Animal Care and Use Committee.
Hydrogel-based in vivo cell transplantation. RFP-HDFs were encapsulated in 0.5 wt % AcVES3-RGDV at 10^7 cells mL^−1 as described in the 3D cell culture section. After gelation, the cell-peptide gel (10^6 cells per 100 μL) was injected into the left dorsal region of the mouse and as a control, RFP-HDF suspension in serum-free DMEM (10^6 cells per 100 μL) was injected into the right dorsal region of the mouse.
In vivo fluorescence imaging. Multispectral fluorescence imaging was performed daily (Monday-Friday) for 42 days using a Maestro Flex imager (PerkinElmer). Briefly, mice were anesthetized for 3-4 minutes in an induction chamber with 3% isoflurane with filtered air (0.2 μm filter) used as a carrier at a flow rate of 1 liter per minute. After isoflurane induction, the mice were transferred to an imaging chamber, where isoflurane was reduced to 2% and O2 was used as a carrier. The imaging platform was kept at 37° C. to maintain the mouse's internal temperature. Image acquisition (Maestro software, ver. 2.10.0) of the RFP fluorescence signal utilized a 533±26 nm excitation filter (placed in front of the 300 W xenon excitation source), a 580 nm long-pass filter (placed in front of the CCD) and implementing a multispectral imaging acquisition of 550-720 nm range, 10 nm increment, auto exposure (typically 0.5-5 seconds per emission wavelength), with a 2×2 pixel binning, resulting in a stack of images (image cube). RFP signal was distinguished from the tissue autofluorescence by employing vendor specified unmixing protocol. Quantitative analysis was performed by drawing a standard circular region of interest (ROI) over the injection site of the unmixed RFP component image. The total RFP signal (scaled counts second^−1) within each ROI was measured and plotted as a function of time.
Collection of RFP-HDFs from the tissue graft. After in vivo imaging on day 42, mice were euthanized using CO2 and ex vivo images (Maestro Software) were acquired by exposing the cell-peptide gel injection site. Image acquisition and processing were performed with the same parameters as performed for in vivo imaging as stated above. Utilizing the unmixed RFP image to guide resecting the RFP-positive tissue, the RFP positive cells were resected and then homogenized by squeezing them through a cell strainer. The collected cells were then cultured on a tissue culture plate with FBS-supplemented DMEM for 10 days and observed using an EVOS FL Auto Cell Imaging System.

[1] = Rheology of cell-encapsulating gels after 4 days of 3D culture; format: physicochemical; details: 1000% strain for 30 s every 10 min
Excerpt: FIGS. 7A-7E. Three-dimensional culturing of HDFs. HDFs were 3D cultured with 0.5 wt % peptide hydrogels or 0.3 wt % collagen hydrogels with Essential 8 Medium. (7A) Live and dead cells were visualized on days 1, 4, and 7, using calcein AM and ethidium homodimer-1 staining, respectively (scale bar=100 μm). (7B) Cell growth was monitored by quantifying cell viability on days 1, 4, and 7. Data are represented as mean±SD of three independent replicates. (7C) A pseudo-colored composite of varying depths (0-500 μm) of Z-stacked images of live cells stained with calcein AM in 0.5% AcVES3-RGDV hydrogels on day 4 (scale bar=100 μm). […] (7D) Z-stack image of cytoskeleton organization in the hydrogels on day 4 with actin and nuclei (scale bar=100 μm) stained. (7E) Shear-thinned recovery of cells encapsulated in 0.5 wt % AcVES3-RGDV hydrogel after 3D culturing for 4 days. Hydrogels were shear-thinned at 1000% strain for 30 s (indicated by dashed line) every 10 min and allowed to recover by reducing the strain to 0.2%.
Rheology measurements of cell-encapsulating gels after 4 days of 3D cell culturing were performed using 8-mm stainless steel parallel plate geometry with a 0.5 mm gap height. A cell-encapsulating gel (100 μL) in a transwell insert (for 24 well plates, Corning) was transferred to the rheometer plate previously equilibrated at 37° C. and oil was placed around the sample. […]

In the case of `CC(=O)N[C@H](C(=O)N[C@@H](CCC(=O)O)C(=O)N[C@H](C(=O)N[C@@H](CO)C(=O)N[C@H](C(=O)N[C@@H](CO)C(=O)N[C@H](C(=O)N[C@@H](CCC(=O)O)C(=O)N[C@H](C(=O)N1CCC[C@@H]1C(=O)N1CCC[C@H]1C(=O)N[C@H](C(=O)N[C@@H](CCC(=O)O)C(=O)N[C@H](C(=O)N[C@@H](CO)C(=O)N[C@H](C(=O)N[C@@H](CCC(=O)O)C(=O)N[C@H](C(=O)N[C@@H](CCC(=O)O)C(=O)N[C@H](C(=O)NCC(=O)NCC(=O)NCC(=O)NCC(=O)N[C@@H](CCCNC(=N)N)C(=O)NCC(=O)N[C@@H](CC(=O)O)C(=O)N[C@H](C(N)=O)C(C)C)C(C)C)C(C)C)C(C)C)C(C)C)[C@@H](C)O)C(C)C)C(C)C)C(C)C)C(C)C)C(C)C` [AcVES3-RGDV] (Ac-VEVSVSVEV[dP]PTEVSVEVEVGGGGRGDV-NH2), the “retention of cells after initial injection” value (RFP-HDFs; 10^6 RFP-HDFs per 100 μL gel) is reported as “over 40 days”, the “slowing of dissipation of injected cells versus cell suspension control” value (RFP-HDFs; 10^6 RFP-HDFs per 100 μL, dorsal injection, from slopes of the lines) is reported as ~6 fold and the “RFP signal still detected at injection site” value (RFP-HDFs; day 42) is reported as “approximately 2%”. For the same molecule, the “inflammation around the injection site” value (RFP-HDFs; day 42, dissected subcutaneous tissue) was “no apparent inflammation”, the “localization, retention and engraftment of delivered cells” value (RFP-HDFs; mouse, in vivo) was “dramatically enhance localization and retention of the delivered cells and also support engraftment” and the “storage moduli after multiple physical disruptions” value [1] was “constant”.
